The text below walks through data of patent publication US10544155B2, “Spirocyclic quinolizine derivatives useful as HIV integrase inhibitors” (MERCK SHARP & DOHME CORP., priority 2015, dated 2020).

Where two headings read alike, the source gives them in different places.

In the experiment the test system is HIV-1 (NL4-3 strain). In words: Assay for inhibition of HIV replication (MT4-gag-GFP reporter cell line, wild type cell assay, Viking). It counts as cell-based. As to conditions: IP from 4-parameter dose response curve. The procedure: This assay is a kinetic assay that employs a reporter cell line (MT4-gag-GFP) to quantify the number of new cells infected in each round of replication.
MT4-GFP cells (250,000 cells/ml) were bulk-infected with HIV-1 (NL4-3 strain) at low multiplicity of infection (MOI) in RPMI+10% FBS for 24 hours. Cells were then washed once in RPMI+10% FBS and resuspended in RPMI+0% or 10% or 100% normal human serum (NHS). Test compounds were serial-diluted in DMSO on ECHO. The infected MT4-GFP cells were added to a 384-well poly-D-lysine coated black plate with clear bottom in which the diluted test compounds were placed. The cells were seeded at 8,000 cells per well and the final DMSO concentration was 0.4%. The infected cells (Green GFP cells) were quantified at both 24 and 48 hours post incubation using Acumen eX3. Viral reproductive ratio (R0) was determined using the number of infected cells at 48 hours divided by the number of infected cells at 24 hours. Percent viral growth inhibition was calculated by [1−(R−Rtripledrug)/(RDMSO−Rtripledrug)]*100. Compound potency IP or IC50 was determined by a 4-parameter dose response curve analysis.

Setting [1] is: MT4-GFP cells infected with HIV-1 NL4-3, 0% normal human serum, read-out: WILD TYPE CELL ASSAY Viking IP (0% NHS).
Setting [2] is: MT4-GFP cells infected with HIV-1 NL4-3, 100% normal human serum, read-out: WILD TYPE CELL ASSAY Viking IP (100% NHS).
Setting [3] is: Human immunodeficiency virus 1, NL43, MT4-GFP cells infected with HIV-1 NL4-3, 0% normal human serum, read-out: WILD TYPE CELL ASSAY Viking IP (0% NHS).
Setting [4] is: Human immunodeficiency virus 1, NL43, MT4-GFP cells infected with HIV-1 NL4-3, 100% normal human serum, read-out: WILD TYPE CELL ASSAY Viking IP (100% NHS).

As to `CC1(C)C(=O)c2c(O)c(=O)c(C(=O)NCc3ccc(F)cc3F)cn2CC12CCCO2` (single isomer, unassigned) [Compound 1], the IC50 is, setting by setting: under setting [1], 0.9 nM; under setting [2], 175 nM.

`CC1(C)C(=O)c2c(O)c(=O)c(C(=O)NCc3ccc(F)cc3F)cn2CC12CCCO2` (single isomer, unassigned) [Compound 2]: the IC50 is, setting by setting: under setting [1], 1.2 nM; under setting [2], 2300 nM.

As for `CC1(C)C(=O)c2c(O)c(=O)c(C(=O)NCc3cccc(Cl)c3F)cn2CC12CCCO2` (single isomer, unassigned) [Compound 6], the IC50 is, setting by setting: under setting [3], 1.8 nM; under setting [4], 581 nM.

Take `CC1(C)C(=O)c2c(O)c(=O)c(C(=O)NCc3ccc(F)c(Cl)c3F)cn2CC12CCCO2` (single isomer, unassigned) [Compound 8]: the IC50 is, setting by setting: under setting [3], 1.7 nM; under setting [4], 585 nM.

Regarding `CC1(C)C(=O)c2c(O)c(=O)c(C(=O)NCc3ccc(F)cc3)cn2CC12CCCO2` (single isomer, unassigned) [Compound 10], the IC50 reads like this: under setting [3], 7 nM; under setting [4], 425 nM.

In the case of `CC1n2cc(C(=O)NCc3ccc(F)cc3F)c(=O)c(O)c2C(=O)C(C)(C)C12CCCO2` (single isomer, unassigned) [Compound 14], the IC50 runs as follows: under setting [3], 2 nM; under setting [4], 3300 nM.

As for `CC1COC2(C1)Cn1cc(C(=O)NCc3cccc(Cl)c3F)c(=O)c(O)c1C(=O)C2(C)C` (single isomer, unassigned) [Compound 20], the IC50 came to 2 nM under setting [1] and 1160 nM under setting [2].

On to `CC1COC2(C1)Cn1cc(C(=O)NCc3cccc(Cl)c3F)c(=O)c(O)c1C(=O)C2(C)C` (single isomer, unassigned) [Compound 21], for which the IC50 runs as follows: under setting [1], 1.3 nM; under setting [2], 226 nM.

For `CC1COC2(C1)Cn1cc(C(=O)NCc3cccc(Cl)c3F)c(=O)c(O)c1C(=O)C2(C)C` (single isomer, unassigned) [Compound 22], the IC50 is, setting by setting: under setting [1], 0.8 nM; under setting [2], 1540 nM.

On to `CC1COC2(C1)Cn1cc(C(=O)NCc3cccc(Cl)c3F)c(=O)c(O)c1C(=O)C2(C)C` (single isomer, unassigned) [Compound 23], for which the IC50 was found to be 1 nM under setting [1] and 717 nM under setting [2].

Regarding `CC1COC2(C1)Cn1cc(-c3nnc(Cc4ccc(F)cc4F)s3)c(=O)c(O)c1C(=O)C2(C)C` (single isomer, unassigned) [Compound 24], the IC50 is 2.9 nM under setting [3] and 354 nM under setting [2].

As to `CC1COC2(C1)Cn1cc(-c3nnc(Cc4ccc(F)cc4F)s3)c(=O)c(O)c1C(=O)C2(C)C` (single isomer, unassigned) [Compound 25], the IC50 reads like this: under setting [1], 3.8 nM; under setting [2], 1120 nM.

`CC1(C)C(=O)c2c(O)c(=O)c(C(=O)NCc3ccc(F)cc3F)cn2CC12CCCCO2` (stereo not drawn) [Compound 3]: the IC50 reads like this: under setting [1], 4.2 nM; under setting [2], 2540 nM.

With `C/C=C1\C(=O)c2c(O)c(=O)c(C(=O)NCc3ccc(F)cc3F)cn2CC12CCOCC2` [Compound 5], the IC50 reads like this: under setting [1], 3.9 nM; under setting [2], 592 nM.

Turning to `CC1(C)C(=O)c2c(O)c(=O)c(C(=O)NCc3cccc(Cl)c3F)cn2CC12CCCO2` (stereo not drawn) [Compound 7], the IC50 runs as follows: under setting [3], 1.8 nM; under setting [4], greater than 8000 nM.

With `CC1(C)C(=O)c2c(O)c(=O)c(C(=O)NCc3ccc(F)c(Cl)c3F)cn2CC12CCCO2` (stereo not drawn) [Compound 9], the IC50 under setting [3] turned out to be 1.7 nM and the IC50 under setting [4] was 6670 nM.

As to `CC1(C)C(=O)c2c(O)c(=O)c(C(=O)NCc3ccc(F)cc3)cn2CC12CCCO2` (stereo not drawn) [Compound 11], the IC50 under setting [3] was found to be 7.8 nM and the IC50 under setting [4] amounted to 4920 nM.

Take `CC1(C)C(=O)c2c(O)c(=O)c(-c3nnc(Cc4ccc(F)cc4F)s3)cn2CC12CCCO2` (stereo not drawn) [Compound 12]: the IC50 is 5 nM under setting [1] and greater than 8000 nM under setting [2].

Regarding `CC1(C)C(=O)c2c(O)c(=O)c(-c3nnc(Cc4ccc(F)cc4F)s3)cn2CC12CCCO2` (stereo not drawn) [Compound 13], the IC50 by setting is: under setting [1], 5.4 nM; under setting [2], 585 nM.

As for `CC1n2cc(C(=O)NCc3ccc(F)cc3F)c(=O)c(O)c2C(=O)C(C)(C)C12CCCO2` (stereo not drawn) [Compound 15], the IC50 is 2.4 nM under setting [3] and 149 nM under setting [4].

`CC1COC2(C1)Cn1cc(C(=O)NCc3ccc(F)cc3F)c(=O)c(O)c1C(=O)C2(C)C` (stereo not drawn) [Compound 16]: the IC50 reads like this: under setting [3], 3.1 nM; under setting [2], 634 nM.

With `CC1COC2(C1)Cn1cc(C(=O)NCc3ccc(F)cc3F)c(=O)c(O)c1C(=O)C2(C)C` (stereo not drawn) [Compound 17], the IC50 reads like this: under setting [1], 3.1 nM; under setting [2], 307 nM.

Consider `CC1COC2(C1)Cn1cc(C(=O)NCc3ccc(F)cc3F)c(=O)c(O)c1C(=O)C2(C)C` (stereo not drawn) [Compound 18], for which the IC50 reads like this: under setting [1], 2.7 nM; under setting [2], 855 nM.

With `CC1COC2(C1)Cn1cc(C(=O)NCc3ccc(F)cc3F)c(=O)c(O)c1C(=O)C2(C)C` (stereo not drawn) [Compound 19], the IC50 runs as follows: under setting [1], 2.6 nM; under setting [2], 453 nM.
